Patent EP1733758A1, “Methods for administration of a farnesyl dibenzodiazepinone” (Ecopia Biosciences Inc., priority 2005, dated 2006)
Read-outs that look alike come from different tables or passages of the source.

Experiments:
[1] = system: human prostate tumor (PC3) xenografts; test: Human PC3 prostate tumor xenograft efficacy; type: in vivo, HRLN male nude mice; details: for %T/C: day 38, P< 0.0001
Protocol: The anticancer activity of the compound of Formula I was further tested in a human PC3 prostate model in mice. HRLN male nude mice (8 weeks of age) were implanted with 1 mm^3 PC3 tumor fragments subcutaneously (SC) in the right flank. Animals were randomized (ten per group) when tumors reach an average size of 80 - 120 mg and treatment began according to the table below. For these studies, the compound of Formula I was formulated in 5% ethanol, 5% PEG-400, 15% Polysorbate 80, and 75% of water containing 5% dextrose.
Tumor measurements were taken twice weekly using callipers and were converted to tumor mass (in milligrams) using the formula: with^2 (mm) x length (mm) x 0.52. Body weights were also recorded twice weekly. Statistical analysis was done using the unpaired two-tailed Student's t test.

[2] = Population pharmacokinetic analysis (NONMEM), mouse; type: in vivo; details: Mouse (IV)
Protocol: (§1) An analysis was performed to derive allometric equations for Formula I pharmacokinetic parameters using Formula I plasma concentration-time data from three species, including mouse, rat, and monkey, and to estimate human pharmacokinetic parameters from those allometric equations.
(§2) Plasma concentrations of Formula I were obtained from mice, rats, and monkeys following intravenous injection or continuous infusion. Formula I pharmacokinetic parameters in mice, rats, and monkeys were estimated using population pharmacokinetic analysis, a function of the software program NONMEM™ (version 5). Typical population pharmacokinetic parameters for Formula I in humans were extrapolated from allometric equations that were derived from pharmacokinetic parameters estimated in the three animal species.
A two-compartment model with a first-order elimination from the central compartment adequately described Formula I plasma concentration-time profiles following intravenous bolus injection (30 mg/kg) in mice and rats, 7-day continuous infusion in rats (50 to 170 mg/kg/day), and 14-day continuous infusion in monkeys (5 to 30 mg/kg/day).

U-87MG cell line = test: In vitro activity in the U-87MG cell line; type: cell-based; details: Homo sapiens
[3] = system: human glioma (U-87MG) tumor xenograft; test: Human U-87MG glioblastoma xenograft antitumor efficacy study; type: in vivo, female athymic (nu/nu) nude mice; details: SC bolus 30 mg/kg q1d x 5 over 2 weeks
Source text: In this model and the models of Examples 3, 6 and 7, tumor growth was followed every other day by measuring tumor length (L) and width (W) using a calliper. Measurements were converted to tumor volumes (TV; mm^3) using the standard formula, TV = (L xW^2)/2. Tumor volume at day n was expressed as relative tumor volume (RTV) according to the following formula RTV = TVn / TV0, where TVn is the tumor volume at day n and TV0 is the tumor volume at day 0. The percentage of tumor growth inhibition (%TGI) was determined by 1 ― (mean RTV of treated group/ mean RTV of control group) x 100. […] Statistical analysis was calculated by the two-tailed unpaired t test using the Prism software. Animals were weighed at least twice weekly during and after treatment until completion of the study. The mice were examined frequently for overt signs of any adverse drug-related side effects.
The human U-87 MG (ATCC® no. HTB-14™) glioblastoma antitumor efficacy study was performed at INSERM U318 (Grenoble, France). […]
For the human glioblastoma antitumor efficacy study, female athymic (nu/nu) nude mice (6-7 weeks of age) were inoculated SC with 5 x 10^6 U-87MG cells (day 0). […] Tumor growth inhibition (TGI) was calculated on day 34 post tumor cell inoculation, at which time some animals from the vehicle control group had to be sacrificed due to tumor burden.

[4] = Allometric extrapolation of population pharmacokinetic parameters to humans; details: for half-life: human; for half-life / clearance / Vd: plasma, intravenous; for Vd: read-out: Vss
Protocol: as §1, §2
Allometric equations for the pharmacokinetic parameters clearance (CL), volume of distribution (V1 and V2), and inter-compartmental clearance (Q) were derived. The population PK parameters of the compound of Formula I for humans were extrapolated from the allometric equations, and the estimated values are shown in Table 6. Simulated Formula I plasma concentration-time profiles in humans are shown in Figure 13 and estimated end of infusion concentrations are provided in Table 7.

[5] = typical population PK parameter
[6] = Human, WT 70 Kg, estimated from allometric equations
[7] = Human, estimated from allometric equations derived from mouse, rat and monkey

## CC(C)=CCC/C(C)=C/CC/C(C)=C/CN1C(=O)c2cccc(O)c2Nc2c(O)cc(O)cc21 [Formula I, 10-farnesyl-4,6,8-trihydroxy-dibenzodiazepin-11-one]
[1]; bolus SC 30 mg/kg days 1 to 5, 8 to 12 and 15 to 19
  %T/C: 25.5%
[1]; bolus SC 50 mg/kg every three days x 7
  %T/C: 14.6%
[1]; bolus intravenous treatment (100 mg/kg, 5/2/5/2/5)
  antitumor activity: did not result in activity
[2]; WT 0.022 Kg
  Q: 0.001 L/h
  V1: 0.004 L
  V2: 0.005 L
[2]; [5]
  Ke: 8.466 h⁻¹
  Q: 0.0654 L/h/kg
  V1: 0.176 L/kg
  V2: 0.225 L/kg
U-87MG cell line
  IC50: 10.9 µM
[3]
  body weight loss: no significant body weight loss
[3]; day 34, P = 0.05
  %TGI: 36%
[4]; [6]
  Q: 2.27 L/h
  V1: 13.9 L
  V2: 39.2 L
  clearance: 275 mL/min
  Vd: 53.1 L
[4]; [7]
  Ke: 1.192 h⁻¹
  Q: 0.032 L/h/kg
  V1: 0.198 L/kg
  V2: 0.559 L/kg
  clearance: 0.236 L/h/kg
  Vd: 0.757 L/kg
[4]; estimated from allometric equations derived from mouse, rat and monkey, read-out: t1/2,α (converted)
  half-life: 0.509 h
[4]; estimated from allometric equations derived from mouse, rat and monkey, read-out: t1/2,β (converted)
  half-life: 13.8 h
